{"source": "paper PMC11984388", "about": "“A brain-accessible peptide modulates stroke inflammatory response and neurotoxicity by targeting BDNF-receptor TrkB-T1 specific interactome” (Theranostics, 2025)", "system": "Bio-sTT1Ct-interacting proteins of primary cortical cultures", "experiment": "Pull-down with biotinylated peptide and label-free proteomics", "format": "binding, Rattus norvegicus", "conditions": "pull-down from neuronal-enriched cortical cultures; did not pass the selection criteria", "method": "Cultures incubated with biotinylated peptides and treated as indicated were lysed at 4°C in NP-40 lysis buffer. Equal protein amounts were combined with streptavidin-agarose beads and incubated for 1.5 h for specifically-bounded protein isolation. Peptides and their interacting proteins were released by incubation at 50°C for 40 min in RIPA modified buffer. Peptide-interacting proteins were collected and subjected to LC-ESI-MS/MS (HR, medium gradient) protein identification using a mass spectrometer (Orbitrap Exploris 240) and Proteome Discoverer software for analysis (CNB Proteomics Facility, CSIC). Further procedure details are provided as Supplementary material.\nCultures were incubated with Bio-TMyc or Bio-sTT1Ct (30 min) before treatment with BDNF (100 ng/ml) or NMDA (100 µM) for 30 additional minutes, or left untreated (Figure 2A). […] Then, proteins interacting with Bio-TMyc and Bio-sTT1Ct were identified by a label free proteomic assay, obtaining a total of 4697 proteins for the three different biological conditions and four independent experiments analyzed. […] Therefore, we evaluated by a Principal Component Analysis (PCA) whether the interactome profiles obtained were different for both peptides (Figure 2B). […]\n[…]", "note": "Residues, ends and D or L forms follow the SMILES beside them. *: point of attachment. Biotin = O=C1N[C@H]2[C@H](CS[C@H]2CCCCC(=O)*)N1"}
{"smiles": "CC[C@H](C)[C@H](NC(=O)[C@H](CCCCN)NC(=O)[C@H](Cc1c[nH]cn1)NC(=O)[C@H](Cc1ccccc1)NC(=O)[C@H](CC(C)C)NC(=O)[C@@H](NC(=O)[C@H](Cc1ccccc1)NC(=O)[C@H](CCCNC(=N)N)NC(=O)[C@H](CCCNC(=N)N)NC(=O)[C@H](CCCNC(=N)N)NC(=O)[C@H](CCC(N)=O)NC(=O)[C@H](CCCNC(=N)N)NC(=O)[C@H](CCCNC(=N)N)NC(=O)[C@H](CCCCN)NC(=O)[C@H](CCCCN)NC(=O)[C@H](CCCNC(=N)N)NC(=O)CNC(=O)[C@H](Cc1ccc(O)cc1)NC(=O)CCCC[C@@H]1SC[C@@H]2NC(=O)N[C@@H]21)C(C)C)C(=O)N1CCC[C@H]1C(=O)N[C@@H](CC(C)C)C(=O)N[C@@H](CC(=O)O)C(=O)NCC(N)=O", "note": "[Bio-sTT1Ct] (Biotin-YGRKKRRQRRRFVLFHKIPLDG-NH2)", "values": [{"measurement": "Binding of RhoGDI (Arhgdia) to the peptide", "result": "very low binding"}]}
